In one test the test system is NCI-H322M. The experiment in a line: NCI cytotoxicity (SRB, 48 h), NCI-H322M. Conditions: non-small cell lung. It is filed as cell-based, human. How it is done: (§1) The C8-linked quinazolinone-PBD hybrid (5d) has been tested against sixty human tumour cell lines derived from nine cancer types (leukemia, non-small cell lung cancer, colon cancer, CNS cancer, melanoma, ovarian cancer, renal cancer, prostate cancer and breast cancer) as per NCI protocol. For each compound, dose response curves for individual cell lines have been measured at a minimum of five concentrations at 10 fold dilutions. A protocol of 48 h continuous drug exposure has been used, and a sulforhodamine B (SRB) protein assay was used to estimate cell viability or growth. The concentration for 50% cell growth inhibition (GI50), total cell growth inhibition (TGI, 0% growth) and 50% cell death (LC50, […]) compared with the control has been calculated (Table-1). Compound 5d has been evaluated for their in vitro cytotoxicity in sixty cell lines from nine human cancer types of lung (Hop-62, NCI-H226, NCI-H522), leukemia (K-562, SR), colon (HCT-116, HCT-15, HCC-2998), CNS(SF-539), melanoma (SK-MEL-5, UACC-62, M14), ovarian (IGROV1), renal (A498), prostate (PC3) breast (BT-549, MDA-MB-435, HS578T) origin. The results are expressed as percent of cell growth determined relative to that of untreated control cells (Table 2). The representative compound 5d has shown significant cytotoxicity against some cancer cell lines.

The test system of the next test is HCT-15. The experiment in a line: NCI cytotoxicity (SRB, 48 h), HCT-15. Conditions: HCT-15, colon. It is filed as cell-based, human. How it is done:
as §1

The test system of a further test is HOP-92. Put plainly: NCI cytotoxicity (SRB, 48 h), HOP-92. Conditions: HOP-92, non-small cell lung. It is filed as cell-based, human. How it is done: as §1
Test [1] concerns duplex-form calf thymus DNA (CT-DNA). Put plainly: Thermal denaturation studies with calf thymus DNA. It is filed as binding. To be noted: [PBD]:[DNA] molar ratio 1:5, CT-DNA 100 μM, ligand 20 μM, pH 7.00. How it is done:
Compounds have been subjected to thermal denaturation studies with duplex-form calf thymus DNA (CT-DNA) using a modification of a reported procedure. Working solutions in aqueous buffer ([…] NaH2PO4/Na2HPO4, 1 mM Na2EDTA, pH 7.00+0.01). containing CT-DNA (100 μm in phosphate) and the PBD (20 μm) have been prepared by addition of concentrated PBD solutions in DMSO to obtain a fixed [PBD]/[DNA] molar ratio of 1:5. The DNA-PBD solutions have been incubated at 37° C. for 0 and 18 hrs prior to analysis. Samples have been monitored at 260 nm using a Beckman DU-800 spectrophotometer fitted with high performance temperature controller, and heated at 1° C. min^−1 in the 40-110° C. range. DNA helix→coil transition temperatures (Tm) have been obtained from the maxima in the d(A260)/dT derivative plots. Drug-induced alterations in DNA melting behavior are given by: ΔTm=Tm(DNA+PBD)−Tm(DNA alone), where the Tm value for the PBD-free CT-DNA is 68.5±0.01.
The DNA-binding for these novel C8-linked quinazolinone-PBD hybrids has been examined by thermal denaturation studies using calf thymus (CT) DNA. […] Data for 5b, 5c, 5d, and 5k, 5l, 5m and DC-81 are included in Table 5 for comparison.

For a further test, the system named is RPMI-8226. The experiment in a line: NCI cytotoxicity (SRB, 48 h), RPMI-8226. It is filed as cell-based, human. Conditions: RPMI-8226, leukemia. How it is done:
as §1

In another test the test system is HL-60(TB). Put plainly: NCI cytotoxicity (SRB, 48 h), HL-60(TB). It is filed as cell-based, human. To be noted: leukemia. How it is done:
as §1

A further test concerns Colon cancer cell lines. The experiment in a line: NCI cytotoxicity (SRB, 48 h), colon panel. It is filed as cell-based, human. Conditions: Colon panel average. How it is done: as §1
In another test the test system is CCRF-CEM. The experiment in a line: NCI cytotoxicity (SRB, 48 h), CCRF-CEM. It is filed as cell-based, human. Conditions: leukemia. How it is done:
as §1

A further test relates to RXF 393. Put plainly: NCI cytotoxicity (SRB, 48 h), RXF 393. It is filed as cell-based, human. To be noted: RXF 393, renal. How it is done:
as §1

The next test deals with TK-10. Put plainly: NCI cytotoxicity (SRB, 48 h), TK-10. It is filed as cell-based, human. Conditions: TK-10, renal. How it is done:
as §1

Another test has as its system ACHN. The experiment in a line: NCI cytotoxicity (SRB, 48 h), ACHN. It is filed as cell-based, human. To be noted: renal. How it is done: as §1
The test system of a further test is HT29. Put plainly: NCI cytotoxicity (SRB, 48 h), HT29. It is filed as cell-based, human. To be noted: HT29, colon. How it is done:
as §1

The test system of a further test is K-562. Put plainly: NCI cytotoxicity (SRB, 48 h), K-562. It is filed as cell-based, human. Conditions: K-562, leukemia. How it is done:
as §1

A further test concerns Renal cancer cell lines. The experiment in a line: NCI cytotoxicity (SRB, 48 h), renal panel. It is filed as cell-based, human. To be noted: Renal panel average. How it is done:
as §1

The test system of another test is NCI-H522. The experiment in a line: NCI cytotoxicity (SRB, 48 h), NCI-H522. Conditions: NCI-H522, non-small cell lung. It is filed as cell-based, human. How it is done:
as §1

The subject of a further test is OVCAR-5. The experiment in a line: NCI cytotoxicity (SRB, 48 h), OVCAR-5. To be noted: OVCAR-5, ovarian. It is filed as cell-based, human. How it is done: as §1

As for `COc1cc2c(cc1OCCCCCOc1ccc(-n3c(C)nc4ccccc4c3=O)cc1)N=C[C@@H]1CCCN1C2=O` [5d, 7-methoxy-8-{5-[4-(2-methyl-4-oxo-3,4-dihydro-3-quinazolinyl)phenoxy]pentyloxy-}-(11aS)-1,2,3,11a-tetrahydro-5H-pyrrolo[2,1-c][1,4]benzodiazepine-5-one], the GI50 in the test on NCI-H322M was determined as 260 nM; in the test on HCT-15, 1090 nM; with HOP-92 it was 350 nM; with RPMI-8226, 190 nM; in the test on HL-60(TB), 180 nM; in the test on CCRF-CEM it was 160 nM. For the same compound, the GI50 in the test with RXF 393 is 210 nM; with TK-10 it was 310 nM; in the test with ACHN, 290 nM; in the test on HT29, 260 nM; with K-562 it was 60 nM; in the test on NCI-H522 it was 120 nM. Also, it took 330 nM to inhibit growth in the test on OVCAR-5 by half (GI50). Further, the “ΔTm after incubation at 37° C. for 0 h” value in test [1] (0 h) is 1.1 °C. Also, in [1] (18 h), the “ΔTm after incubation at 37° C. for 18 h” value came to 2.3 °C. The “Log10 GI50” value in the test with Colon cancer cell lines is −6.59 mol/L; in the test with Renal cancer cell lines it was −6.62 mol/L. Further, the “Log10 LC50” value is reported as −5.49 in the test with Colon cancer cell lines and −5.09 with Renal cancer cell lines.

Source of the values: patent US8691811B2, “Quinazolinone linked pyrrolo[2,1-c][1,4]benzodiazepine hybrids as potential anticancer agents and process for the preparation thereof” (Council of Scientific & Industrial Research, priority 2008, dated 2014).
